Assay results: ChEMBL document CHEMBL1697731, “Cheminformatics analysis of assertions mined from literature that describe drug-induced liver injury in different species” (Chem Res Toxicol, 2010)
Where a SMILES comes first, the peptide text is derived from it. Bridges are numbered along the chain shown (N, C = ends). [ ]: non-standard residue; d: D form. The star is where a group is joined. Threoninol(2S,3R) = C[C@@H](O)[C@H](CO)N*

Tests used:
Hepatotoxicity [1] = experiment: Literature-mined compound from Fourches et al multi-species drug-induced liver injury (DILI) dataset, effect in rodents; conditions: rodentia
Hepatotoxicity [2] = experiment: Literature-mined compound from Fourches et al multi-species drug-induced liver injury (DILI) dataset, effect in non-rodents
Hepatotoxicity [3] = experiment: Literature-mined compound from Fourches et al multi-species drug-induced liver injury (DILI) dataset, effect in humans; conditions: human

CCCc1nc2c(C)cc(-c3nc4ccccc4n3C)cc2n1Cc1ccc(-c2ccccc2C(=O)O)cc1
Hepatotoxicity (Hepatotoxicity [1]): drug-induced liver injury reported | Hepatotoxicity (Hepatotoxicity [2]): no drug-induced liver injury reported | Hepatotoxicity (Hepatotoxicity [3]): drug-induced liver injury reported

CCCCC(=O)N(Cc1ccc(-c2ccccc2-c2nnn[nH]2)cc1)[C@H](C(=O)O)C(C)C
Hepatotoxicity (Hepatotoxicity [1]): drug-induced liver injury reported | Hepatotoxicity (Hepatotoxicity [2]): no drug-induced liver injury reported | Hepatotoxicity (Hepatotoxicity [3]): drug-induced liver injury reported

CC(C)(C)NC(=O)[C@@H]1C[C@@H]2CCCC[C@@H]2CN1C[C@@H](O)[C@H](Cc1ccccc1)NC(=O)[C@H](CC(N)=O)NC(=O)c1ccc2ccccc2n1
Hepatotoxicity (Hepatotoxicity [1]; Liver): no drug-induced liver injury reported | Hepatotoxicity (Hepatotoxicity [2]; Liver): no drug-induced liver injury reported | Hepatotoxicity (Hepatotoxicity [3]; Liver): drug-induced liver injury reported

CCN(CC)Cc1cc(Nc2ccnc3cc(Cl)ccc23)ccc1O.Cl
Hepatotoxicity (Hepatotoxicity [1]; Liver): drug-induced liver injury reported | Hepatotoxicity (Hepatotoxicity [2]; Liver): no drug-induced liver injury reported | Hepatotoxicity (Hepatotoxicity [3]; Liver): drug-induced liver injury reported

CCC[C@H](NC(=O)[C@@H]1[C@H]2CCC[C@H]2CN1C(=O)[C@@H](NC(=O)[C@@H](NC(=O)c1cnccn1)C1CCCCC1)C(C)(C)C)C(=O)C(=O)NC1CC1
Hepatotoxicity (Hepatotoxicity [1]): no drug-induced liver injury reported | Hepatotoxicity (Hepatotoxicity [2]): no drug-induced liver injury reported | Hepatotoxicity (Hepatotoxicity [3]): drug-induced liver injury reported

O=C(O)COc1ccc(C(=O)c2cccs2)c(Cl)c1Cl
Hepatotoxicity (Hepatotoxicity [1]): drug-induced liver injury reported | Hepatotoxicity (Hepatotoxicity [2]): no drug-induced liver injury reported | Hepatotoxicity (Hepatotoxicity [3]): drug-induced liver injury reported

O=C(O)C(S)C(S)C(=O)O (stereo unspecified)
Hepatotoxicity (Hepatotoxicity [1]): drug-induced liver injury reported | Hepatotoxicity (Hepatotoxicity [2]): no drug-induced liver injury reported | Hepatotoxicity (Hepatotoxicity [3]): drug-induced liver injury reported

COc1ccc(/C=C/C(=O)Nc2ccccc2C(=O)O)cc1OC
Hepatotoxicity (Hepatotoxicity [1]): drug-induced liver injury reported | Hepatotoxicity (Hepatotoxicity [2]): no drug-induced liver injury reported | Hepatotoxicity (Hepatotoxicity [3]): no drug-induced liver injury reported

C[C@@H](O)[C@H](CO)NC(=O)[C@@H]1CSSC[C@H](NC(=O)[C@H](N)Cc2ccccc2)C(=O)N[C@@H](Cc2ccccc2)C(=O)N[C@H](Cc2c[nH]c3ccccc23)C(=O)N[C@@H](CCCCN)C(=O)N[C@@H]([C@@H](C)O)C(=O)N1 (H-[dF]CF[dW]KTC-{Threoninol(2S,3R)}; disulfide 2-7)
Hepatotoxicity (Hepatotoxicity [1]): drug-induced liver injury reported | Hepatotoxicity (Hepatotoxicity [2]): no drug-induced liver injury reported | Hepatotoxicity (Hepatotoxicity [3]): drug-induced liver injury reported

CN1[C@@H]2CC[C@H]1C[C@@H](OC(=O)C(CO)c1ccccc1)C2 (mixture of isomers) [ATROPINE]
Hepatotoxicity (Hepatotoxicity [1]; Liver): drug-induced liver injury reported | Hepatotoxicity (Hepatotoxicity [2]; Liver): no drug-induced liver injury reported | Hepatotoxicity (Hepatotoxicity [3]; Liver): no drug-induced liver injury reported

CCN(CC)CCOc1ccc(C(=C(Cl)c2ccccc2)c2ccccc2)cc1 (stereo in doubt; form 1) [CLOMIPHENE]
Hepatotoxicity (Hepatotoxicity [1]): no drug-induced liver injury reported | Hepatotoxicity (Hepatotoxicity [2]): no drug-induced liver injury reported | Hepatotoxicity (Hepatotoxicity [3]): drug-induced liver injury reported

C[C@]12CCC(=O)C=C1CC[C@@H]1[C@@H]2CC[C@@]2(C)[C@H]1CC[C@]2(C)O (stereo in doubt; form 1) [METHYLTESTOSTERONE]
Hepatotoxicity (Hepatotoxicity [1]): drug-induced liver injury reported | Hepatotoxicity (Hepatotoxicity [2]): no drug-induced liver injury reported | Hepatotoxicity (Hepatotoxicity [3]): no drug-induced liver injury reported

CC(=O)[C@H]1CC[C@H]2[C@@H]3CCC4=CC(=O)CC[C@]4(C)[C@H]3CC[C@]12C (stereo in doubt; form 1) [PROGESTERONE]
Hepatotoxicity (Hepatotoxicity [1]): drug-induced liver injury reported | Hepatotoxicity (Hepatotoxicity [2]): drug-induced liver injury reported | Hepatotoxicity (Hepatotoxicity [3]): drug-induced liver injury reported

COc1cc2c(cc1O)CC[C@@H]1[C@@H]2CC[C@]2(C)[C@@H](O)CC[C@@H]12 [2-METHOXYESTRADIOL]
Hepatotoxicity (Hepatotoxicity [1]): drug-induced liver injury reported | Hepatotoxicity (Hepatotoxicity [2]): no drug-induced liver injury reported | Hepatotoxicity (Hepatotoxicity [3]): drug-induced liver injury reported

O=c1[nH]cc(Br)c(=O)[nH]1 [5-BROMOURACIL]
Hepatotoxicity (Hepatotoxicity [1]): drug-induced liver injury reported | Hepatotoxicity (Hepatotoxicity [2]): no drug-induced liver injury reported | Hepatotoxicity (Hepatotoxicity [3]): no drug-induced liver injury reported

Cc1cn([C@@H]2O[C@H](CO)[C@@H](O)[C@@H]2F)c(=O)[nH]c1=O [5-METHYL-2'-FLUOROARAURACIL]
Hepatotoxicity (Hepatotoxicity [1]): no drug-induced liver injury reported | Hepatotoxicity (Hepatotoxicity [2]): no drug-induced liver injury reported | Hepatotoxicity (Hepatotoxicity [3]): drug-induced liver injury reported

C[C@H](N)[C@H](O)c1ccccc1 [(1R,2S)-PHENYLPROPANOLAMINE]
Hepatotoxicity (Hepatotoxicity [1]): drug-induced liver injury reported | Hepatotoxicity (Hepatotoxicity [2]): no drug-induced liver injury reported | Hepatotoxicity (Hepatotoxicity [3]): no drug-induced liver injury reported

CC(C)=CCN1CC[C@]2(C)c3cc(O)ccc3C[C@H]1[C@H]2C [(+)-PENTAZOCINE]
Hepatotoxicity (Hepatotoxicity [1]): drug-induced liver injury reported | Hepatotoxicity (Hepatotoxicity [2]): no drug-induced liver injury reported | Hepatotoxicity (Hepatotoxicity [3]): no drug-induced liver injury reported

NC(=O)c1ncn([C@@H]2O[C@H](CO)[C@@H](O)[C@H]2O)c1N [ACADESINE]
Hepatotoxicity (Hepatotoxicity [1]): drug-induced liver injury reported | Hepatotoxicity (Hepatotoxicity [2]): no drug-induced liver injury reported | Hepatotoxicity (Hepatotoxicity [3]): no drug-induced liver injury reported

C[C@H]1O[C@H](O[C@H]2[C@H](O)[C@@H](O)[C@@H](O[C@H]3[C@H](O)[C@@H](O)C(O)O[C@@H]3CO)O[C@@H]2CO)[C@H](O)[C@@H](O)[C@@H]1N[C@H]1C=C(CO)[C@@H](O)[C@H](O)[C@H]1O (stereo partly specified) [ACARBOSE]
Hepatotoxicity (Hepatotoxicity [1]): drug-induced liver injury reported | Hepatotoxicity (Hepatotoxicity [2]): no drug-induced liver injury reported | Hepatotoxicity (Hepatotoxicity [3]): drug-induced liver injury reported

CCCC(=O)Nc1ccc(OCC(O)CNC(C)C)c(C(C)=O)c1 (stereo unspecified) [ACEBUTOLOL]
Hepatotoxicity (Hepatotoxicity [1]): drug-induced liver injury reported | Hepatotoxicity (Hepatotoxicity [2]): no drug-induced liver injury reported | Hepatotoxicity (Hepatotoxicity [3]): drug-induced liver injury reported

CC(=O)CC(c1ccc([N+](=O)[O-])cc1)c1c(O)c2ccccc2oc1=O (stereo unspecified) [ACENOCOUMAROL]
Hepatotoxicity (Hepatotoxicity [1]): no drug-induced liver injury reported | Hepatotoxicity (Hepatotoxicity [2]): no drug-induced liver injury reported | Hepatotoxicity (Hepatotoxicity [3]): drug-induced liver injury reported

CC(N)=O [ACETAMIDE]
Hepatotoxicity (Hepatotoxicity [1]): drug-induced liver injury reported | Hepatotoxicity (Hepatotoxicity [2]): no drug-induced liver injury reported | Hepatotoxicity (Hepatotoxicity [3]): no drug-induced liver injury reported

CC(=O)Nc1ccc(O)cc1 [ACETAMINOPHEN]
Hepatotoxicity (Hepatotoxicity [1]): drug-induced liver injury reported | Hepatotoxicity (Hepatotoxicity [2]): drug-induced liver injury reported | Hepatotoxicity (Hepatotoxicity [3]): drug-induced liver injury reported

CC(=O)Nc1nnc(S(N)(=O)=O)s1 [ACETAZOLAMIDE]
Hepatotoxicity (Hepatotoxicity [1]): drug-induced liver injury reported | Hepatotoxicity (Hepatotoxicity [2]): drug-induced liver injury reported | Hepatotoxicity (Hepatotoxicity [3]): drug-induced liver injury reported

CC(=O)O [ACETIC ACID]
Hepatotoxicity (Hepatotoxicity [1]; Liver): drug-induced liver injury reported | Hepatotoxicity (Hepatotoxicity [2]; Liver): drug-induced liver injury reported | Hepatotoxicity (Hepatotoxicity [3]; Liver): drug-induced liver injury reported

CC(=O)c1ccc(S(=O)(=O)NC(=O)NC2CCCCC2)cc1 [ACETOHEXAMIDE]
Hepatotoxicity (Hepatotoxicity [1]): no drug-induced liver injury reported | Hepatotoxicity (Hepatotoxicity [2]): no drug-induced liver injury reported | Hepatotoxicity (Hepatotoxicity [3]): drug-induced liver injury reported

CC(=O)NO [ACETOHYDROXAMIC ACID]
Hepatotoxicity (Hepatotoxicity [1]): drug-induced liver injury reported | Hepatotoxicity (Hepatotoxicity [2]): no drug-induced liver injury reported | Hepatotoxicity (Hepatotoxicity [3]): no drug-induced liver injury reported

CC(=O)Nc1c(I)cc(I)c(C(=O)[O-])c1I.O.[Na+] [ACETRIZOATE SODIUM]
Hepatotoxicity (Hepatotoxicity [1]): drug-induced liver injury reported | Hepatotoxicity (Hepatotoxicity [2]): no drug-induced liver injury reported | Hepatotoxicity (Hepatotoxicity [3]): no drug-induced liver injury reported

CC(=O)O[C@H](CC(=O)[O-])C[N+](C)(C)C [ACETYLCARNITINE]
Hepatotoxicity (Hepatotoxicity [1]): drug-induced liver injury reported | Hepatotoxicity (Hepatotoxicity [2]): no drug-induced liver injury reported | Hepatotoxicity (Hepatotoxicity [3]): no drug-induced liver injury reported

CC(=O)OCC[N+](C)(C)C [ACETYLCHOLINE]
Hepatotoxicity (Hepatotoxicity [1]; Liver): drug-induced liver injury reported | Hepatotoxicity (Hepatotoxicity [2]; Liver): drug-induced liver injury reported | Hepatotoxicity (Hepatotoxicity [3]; Liver): no drug-induced liver injury reported

CC(=O)N[C@@H](CS)C(=O)O [ACETYLCYSTEINE]
Hepatotoxicity (Hepatotoxicity [1]): drug-induced liver injury reported | Hepatotoxicity (Hepatotoxicity [2]): no drug-induced liver injury reported | Hepatotoxicity (Hepatotoxicity [3]): drug-induced liver injury reported

COc1cc(C)c(/C=C/C(C)=C/C=C/C(C)=C/C(=O)O)c(C)c1C [ACITRETIN]
Hepatotoxicity (Hepatotoxicity [1]): drug-induced liver injury reported | Hepatotoxicity (Hepatotoxicity [2]): no drug-induced liver injury reported | Hepatotoxicity (Hepatotoxicity [3]): drug-induced liver injury reported

Nc1nc2c(ncn2COCCO)c(=O)[nH]1 [ACYCLOVIR]
Hepatotoxicity (Hepatotoxicity [1]): drug-induced liver injury reported | Hepatotoxicity (Hepatotoxicity [2]): no drug-induced liver injury reported | Hepatotoxicity (Hepatotoxicity [3]): drug-induced liver injury reported

CC(C)(C)C(=O)OCOP(=O)(COCCn1cnc2c(N)ncnc21)OCOC(=O)C(C)(C)C [ADEFOVIR DIPIVOXIL]
Hepatotoxicity (Hepatotoxicity [1]): drug-induced liver injury reported | Hepatotoxicity (Hepatotoxicity [2]): no drug-induced liver injury reported | Hepatotoxicity (Hepatotoxicity [3]): drug-induced liver injury reported

Nc1ncnc2nc[nH]c12 [ADENINE]
Hepatotoxicity (Hepatotoxicity [1]): drug-induced liver injury reported | Hepatotoxicity (Hepatotoxicity [2]): no drug-induced liver injury reported | Hepatotoxicity (Hepatotoxicity [3]): no drug-induced liver injury reported

Nc1ncnc2c1ncn2[C@@H]1O[C@H](COP(=O)(O)OP(=O)(O)OP(=O)(O)O)[C@@H](O)[C@H]1O [ADENOSINE TRIPHOSPHATE]
Hepatotoxicity (Hepatotoxicity [1]): drug-induced liver injury reported | Hepatotoxicity (Hepatotoxicity [2]): no drug-induced liver injury reported | Hepatotoxicity (Hepatotoxicity [3]): no drug-induced liver injury reported
